In ChEMBL document CHEMBL4665835, “Synthesis and pharmacological evaluation of 11-(1,6-dimethyl-1,2,3,6-tetrahydropyridin-4-yl)-5H-dibenzo[b,e][1,4]diazepines with clozapine-like receptor occupancy at dopamine D/D receptor” (Bioorg Med Chem Lett, 2020):
pIC50, pKi: −log10 of the molar value.

Experiments:
[1] = target: Voltage-gated inwardly rectifying potassium channel KCNH2 (Homo sapiens, UniProt Q12809); test: Inhibition of human ERG
[2] = Drug metabolism in human hepatocyte microsome fraction assessed as GSH conjugate formation by LC-MS/MS analysis; format: ADME; conditions: microsomes
D(2) dopamine receptor = D(2) dopamine receptor (Homo sapiens, UniProt P14416)
Description: Binding affinity to human dopamine D2 receptor

[3] = target: 5-hydroxytryptamine receptor 2A (Homo sapiens, UniProt P28223); test: Binding affinity to human 5HT2A receptor
D(1A) dopamine receptor [4] = target: T1, D(1A) dopamine receptor (Homo sapiens, UniProt P21728); test: Binding affinity to human dopamine D1 receptor
[5] = In vivo receptor occupancy at dopamine D1 receptor in sc dosed rat brain by measuring free plasma concentration pretreated for 1 hr in presence of raclopride by LC-MS/MS analysis; format: functional
[6] = In vivo receptor occupancy at human dopamine D2 receptor in schizophrenia patient brain at 10 mCi, iv by PET scanning; format: functional
[7] = In vivo receptor occupancy at dopamine D1 receptor in sc dosed rat brain by measuring free plasma concentration pretreated for 1 hr in presence of SCH-23390 by LC-MS/MS analysis; format: functional
[8] = In vivo receptor occupancy at human dopamine D1 receptor in schizophrenia patient brain at 10 mCi, iv by PET scanning; format: functional
D(1A) dopamine receptor [9] = target: T1, D(1A) dopamine receptor; test: Potency index, ratio of Clozapine Ki to compound Ki for binding affinity to human dopamine D1 receptor

T1 sequence (P21728 whole entry): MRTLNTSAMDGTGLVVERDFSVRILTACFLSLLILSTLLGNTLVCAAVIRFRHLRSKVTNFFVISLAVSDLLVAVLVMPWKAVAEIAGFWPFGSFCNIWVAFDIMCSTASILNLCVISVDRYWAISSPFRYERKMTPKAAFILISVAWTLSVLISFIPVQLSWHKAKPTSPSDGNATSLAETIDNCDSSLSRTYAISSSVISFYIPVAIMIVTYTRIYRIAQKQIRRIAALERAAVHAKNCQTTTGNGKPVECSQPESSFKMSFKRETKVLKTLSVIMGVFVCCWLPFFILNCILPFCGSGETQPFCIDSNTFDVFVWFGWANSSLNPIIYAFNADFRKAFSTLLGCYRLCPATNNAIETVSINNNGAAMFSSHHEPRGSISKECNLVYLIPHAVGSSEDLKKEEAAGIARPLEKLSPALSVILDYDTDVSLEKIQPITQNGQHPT
5-hydroxytryptamine receptor 2A, sequence (P28223 whole entry): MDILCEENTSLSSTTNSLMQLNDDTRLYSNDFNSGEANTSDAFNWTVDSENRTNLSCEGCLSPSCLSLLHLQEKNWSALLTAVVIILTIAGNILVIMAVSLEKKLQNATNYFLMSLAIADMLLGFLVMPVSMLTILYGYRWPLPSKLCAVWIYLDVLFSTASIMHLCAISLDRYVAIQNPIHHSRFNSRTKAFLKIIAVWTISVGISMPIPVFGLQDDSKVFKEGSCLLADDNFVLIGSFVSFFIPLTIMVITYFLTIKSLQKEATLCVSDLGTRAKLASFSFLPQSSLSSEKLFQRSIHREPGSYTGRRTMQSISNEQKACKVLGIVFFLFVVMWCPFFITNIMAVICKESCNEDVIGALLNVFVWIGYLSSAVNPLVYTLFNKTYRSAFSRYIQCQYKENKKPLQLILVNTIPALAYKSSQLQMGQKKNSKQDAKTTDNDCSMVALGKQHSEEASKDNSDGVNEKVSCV
Voltage-gated inwardly rectifying potassium channel KCNH2, sequence (Q12809 whole entry): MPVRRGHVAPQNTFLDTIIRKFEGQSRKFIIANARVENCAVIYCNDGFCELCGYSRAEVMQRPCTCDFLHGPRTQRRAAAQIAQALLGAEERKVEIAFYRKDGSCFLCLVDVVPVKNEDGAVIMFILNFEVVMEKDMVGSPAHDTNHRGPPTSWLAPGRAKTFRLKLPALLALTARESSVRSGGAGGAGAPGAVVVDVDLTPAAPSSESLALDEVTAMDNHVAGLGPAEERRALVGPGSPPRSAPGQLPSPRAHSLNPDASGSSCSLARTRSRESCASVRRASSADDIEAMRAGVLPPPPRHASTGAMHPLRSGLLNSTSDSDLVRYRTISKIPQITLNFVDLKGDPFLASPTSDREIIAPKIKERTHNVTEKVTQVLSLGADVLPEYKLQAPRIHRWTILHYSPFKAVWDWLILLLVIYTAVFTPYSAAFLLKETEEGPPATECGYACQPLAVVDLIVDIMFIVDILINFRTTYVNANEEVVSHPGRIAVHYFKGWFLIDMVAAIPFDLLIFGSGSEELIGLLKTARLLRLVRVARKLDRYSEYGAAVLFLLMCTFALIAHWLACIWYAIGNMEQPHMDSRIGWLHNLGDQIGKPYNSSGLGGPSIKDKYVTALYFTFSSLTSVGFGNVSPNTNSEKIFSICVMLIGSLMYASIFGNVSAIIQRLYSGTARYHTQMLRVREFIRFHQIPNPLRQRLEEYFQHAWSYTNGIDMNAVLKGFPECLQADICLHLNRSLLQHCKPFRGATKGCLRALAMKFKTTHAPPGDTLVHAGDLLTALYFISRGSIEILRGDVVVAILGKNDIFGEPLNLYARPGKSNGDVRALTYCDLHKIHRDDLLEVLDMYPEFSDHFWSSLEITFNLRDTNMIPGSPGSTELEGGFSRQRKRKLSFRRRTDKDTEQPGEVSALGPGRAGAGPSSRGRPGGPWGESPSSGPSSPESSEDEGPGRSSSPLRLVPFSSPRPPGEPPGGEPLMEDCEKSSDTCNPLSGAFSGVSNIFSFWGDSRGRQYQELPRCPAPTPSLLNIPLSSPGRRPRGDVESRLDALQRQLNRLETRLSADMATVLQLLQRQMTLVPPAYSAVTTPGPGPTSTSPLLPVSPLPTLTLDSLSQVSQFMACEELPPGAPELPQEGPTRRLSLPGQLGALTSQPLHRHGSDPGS
D(2) dopamine receptor, sequence (P14416 whole entry): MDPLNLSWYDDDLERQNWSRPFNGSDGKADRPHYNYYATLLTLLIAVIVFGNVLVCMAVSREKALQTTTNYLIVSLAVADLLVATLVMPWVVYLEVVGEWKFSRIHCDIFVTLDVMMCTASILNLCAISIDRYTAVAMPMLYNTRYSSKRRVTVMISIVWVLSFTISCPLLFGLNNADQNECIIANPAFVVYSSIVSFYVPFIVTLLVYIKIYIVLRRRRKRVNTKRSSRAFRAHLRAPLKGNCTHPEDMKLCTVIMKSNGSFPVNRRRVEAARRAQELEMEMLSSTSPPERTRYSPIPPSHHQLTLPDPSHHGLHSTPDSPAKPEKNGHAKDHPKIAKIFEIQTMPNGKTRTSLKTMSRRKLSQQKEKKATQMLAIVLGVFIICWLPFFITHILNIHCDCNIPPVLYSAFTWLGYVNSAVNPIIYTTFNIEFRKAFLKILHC

Question: With `C[C@H]1C=C(C2=Nc3cc(Cl)ccc3Nc3ccc(OC(F)(F)F)cc32)CCN1C` as the molecule, how does the pIC50 [1] read?
Answer: Its pIC50 is 5.72.

Question: And the Drug metabolism [2]?
Answer: Its Drug metabolism is 0.58 µmol/L.

Question: And the pKi (D(2) dopamine receptor)?
Answer: The pKi was 6.96.

Question: And the pKi [3]?
Answer: Its pKi is 9.85.

Question: What about the pKi (D(1A) dopamine receptor [4]) of the same molecule?
Answer: Its pKi is 8.70.

Question: With `COc1ccc2c(c1)C(C1=C[C@H](C)N(C)CC1)=Nc1cc(Cl)ccc1N2` as the molecule, how does the pIC50 [1] read?
Answer: The pIC50 was 5.82.

Question: And the Drug metabolism [2]?
Answer: The Drug metabolism was 0.89 µmol/L.

Question: What about the pKi (D(2) dopamine receptor) of the same molecule?
Answer: Its pKi is 7.16.

Question: What about the pKi (D(1A) dopamine receptor [4]) of the same molecule?
Answer: The pKi was 8.70.

Question: For `Cc1ccc2c(c1)C(C1=C[C@H](C)N(C)CC1)=Nc1cc(Cl)ccc1N2`, which Drug metabolism [2] is on record?
Answer: Its Drug metabolism is 0.35 µmol/L.

Question: And the pKi (D(2) dopamine receptor)?
Answer: Its pKi is 7.20.

Question: And the pKi [3]?
Answer: Its pKi is 10.03.

Question: What about the pKi (D(1A) dopamine receptor [4]) of the same molecule?
Answer: The pKi was 8.64.

Question: With `Cc1ccc2c(c1)N=C(C1=C[C@H](C)N(C)CC1)c1cc(OC(F)(F)F)ccc1N2` as the molecule, how does the pKi (D(2) dopamine receptor) read?
Answer: The pKi was 5.91.

Question: And the pKi (D(1A) dopamine receptor [4])?
Answer: The pKi was 8.62.

Question: Which results are given for `CN1CC=C(C2=Nc3cc(Cl)ccc3Nc3ccccc32)CC1`?
Answer: Drug metabolism [2]: 0.21 µmol/L; pKi (D(2) dopamine receptor): 5.86; pKi (D(1A) dopamine receptor [4]): 6.42

Question: With `Cc1ccc2c(c1)N=C(C1=C[C@H](C)N(C)CC1)c1ccccc1N2` as the molecule, how does the pKi (D(2) dopamine receptor) read?
Answer: The pKi was under 5.85.

Question: Which results are given for `C[C@H]1C=C(C2=Nc3cc(Cl)ccc3Nc3ccccc32)CCN1C`?
Answer: Drug metabolism [2]: 1.3 µmol/L; pKi (D(2) dopamine receptor): 6.32; pKi (D(1A) dopamine receptor [4]): 7.29

Question: With `C[C@H]1C=C(C2=Nc3cc(Cl)ccc3Nc3ccc(Cl)cc32)CCN1C` as the molecule, how does the pIC50 [1] read?
Answer: Its pIC50 is 6.05.

Question: And the Drug metabolism [2]?
Answer: Its Drug metabolism is 0.72 µmol/L.

Question: And the pKi (D(2) dopamine receptor)?
Answer: Its pKi is 6.97.

Question: And the pKi (D(1A) dopamine receptor [4])?
Answer: Its pKi is 9.05.

Question: With `C[C@H]1C=C(C2=Nc3ccccc3Nc3ccc(Cl)cc32)CCN1C` as the molecule, how does the pIC50 [1] read?
Answer: Its pIC50 is 6.22.

Question: What about the Drug metabolism [2] of the same molecule?
Answer: Its Drug metabolism is 0.67 µmol/L.

Question: And the pKi (D(2) dopamine receptor)?
Answer: The pKi was 6.91.

Question: What about the pKi (D(1A) dopamine receptor [4]) of the same molecule?
Answer: Its pKi is 8.80.

Question: With `Cc1cc2c(s1)Nc1ccccc1N=C2N1CCN(C)CC1` [OLANZAPINE] as the molecule, how does the Drug metabolism [2] read?
Answer: The Drug metabolism was 0.077 µmol/L.

Question: And the Occ50 [5]?
Answer: Its Occ50 is 480 nM.

Question: What about the Occ [6] of the same molecule?
Answer: The Occ was 79%.

Question: What about the Occ50 [7] of the same molecule?
Answer: Its Occ50 is 3.8 nM.

Question: And the Occ [8]?
Answer: Its Occ is 43%.

Question: What does the source list for `Cc1ccc2c(c1)N=C(C1=C[C@H](C)N(C)CC1)c1cc(F)ccc1N2`?
Answer: pIC50 [1]: 5.80; Drug metabolism [2]: 0.25 µmol/L; pKi (D(2) dopamine receptor): 6.34; pKi (D(1A) dopamine receptor [4]): 8.26

Question: With `OCCOCCN1CCN(C2=Nc3ccccc3Sc3ccccc32)CC1` [QUETIAPINE] as the molecule, how does the Occ [6] read?
Answer: Its Occ is 30%.

Question: What about the Occ [8] of the same molecule?
Answer: The Occ was 12%.

Question: With `COc1ccc2c(c1)C(C1=C[C@H](C)N(C)CC1)=Nc1cc(C)ccc1N2` as the molecule, how does the pKi (D(2) dopamine receptor) read?
Answer: The pKi was under 5.85.

Question: Which results are given for `CCc1ccc2c(c1)C(C1=C[C@H](C)N(C)CC1)=Nc1cc(Cl)ccc1N2`?
Answer: pIC50 [1]: 5.96; Drug metabolism [2]: 0.53 µmol/L; Occ50 [5]: 6 nM; Occ50 [7]: 1 nM; pKi (D(2) dopamine receptor): 7.55; pKi [3]: 10.03; pKi (D(1A) dopamine receptor [4]): 8.85; Ratio (D(1A) dopamine receptor [9]): 10

Question: With `C[C@@H]1C=C(C2=Nc3cc(Cl)ccc3Nc3ccccc32)CCN1C` as the molecule, how does the Drug metabolism [2] read?
Answer: The Drug metabolism was 0.84 µmol/L.

Question: What about the pKi (D(2) dopamine receptor) of the same molecule?
Answer: Its pKi is under 5.85.

Question: What about the pKi (D(1A) dopamine receptor [4]) of the same molecule?
Answer: Its pKi is 6.11.

Question: With `Cc1ccc2c(c1)N=C(C1=C[C@H](C)N(C)CC1)c1cc(C)ccc1N2` as the molecule, how does the pKi (D(2) dopamine receptor) read?
Answer: Its pKi is under 5.85.

Question: What does the source list for `CCOc1ccc2c(c1)C(C1=C[C@H](C)N(C)CC1)=Nc1cc(Cl)ccc1N2`?
Answer: pIC50 [1]: 6.05; Drug metabolism [2]: 0.77 µmol/L; pKi (D(2) dopamine receptor): 7.33; pKi [3]: 10.04; pKi (D(1A) dopamine receptor [4]): 8.43; Ratio (D(1A) dopamine receptor [9]): 10

Question: What does the source list for `CN1CCC(C2=Nc3cc(Cl)ccc3Nc3ccccc32)=CC1(C)C`?
Answer: Drug metabolism [2]: 0.99 µmol/L; pKi (D(2) dopamine receptor): 5.93; pKi (D(1A) dopamine receptor [4]): 7.26

Question: For `CN1CCN(C2=Nc3cc(Cl)ccc3Nc3ccccc32)CC1` [CLOZAPINE], which Occ50 [5] is on record?
Answer: The Occ50 was 73.4 nM.

Question: And the Occ [6]?
Answer: Its Occ is 61%.

Question: What about the Occ50 [7] of the same molecule?
Answer: Its Occ50 is 24.2 nM.

Question: And the Occ [8]?
Answer: Its Occ is 55%.

Question: Which results are given for `Cc1ccc2c(c1)C(C1=C[C@H](C)N(C)CC1)=Nc1ccccc1N2`?
Answer: Drug metabolism [2]: 0.85 µmol/L; pKi (D(2) dopamine receptor): 6.09; pKi (D(1A) dopamine receptor [4]): 8.10

Question: With `C[C@H]1C=C(C2=Nc3cc(Cl)ccc3Nc3ccc(F)cc32)CCN1C` as the molecule, how does the pIC50 [1] read?
Answer: Its pIC50 is 5.92.

Question: What about the Drug metabolism [2] of the same molecule?
Answer: The Drug metabolism was 0.24 µmol/L.

Question: And the pKi (D(2) dopamine receptor)?
Answer: The pKi was 6.90.

Question: What about the pKi (D(1A) dopamine receptor [4]) of the same molecule?
Answer: The pKi was 9.70.

Question: For `Cc1nc2n(c(=O)c1CCN1CCC(c3noc4cc(F)ccc34)CC1)CCCC2` [RISPERIDONE], which Occ [6] is on record?
Answer: The Occ was 81%.

Question: What about the Occ [8] of the same molecule?
Answer: Its Occ is 25%.

Question: With `CN1CCN([C@@H]2C[C@@H](c3ccccc3)c3ccc(Cl)cc32)CC1(C)C` [ZICRONAPINE] as the molecule, how does the Drug metabolism [2] read?
Answer: Its Drug metabolism is 0 µmol/L.

Question: And the Occ50 [5]?
Answer: The Occ50 was 6.6 nM.

Question: And the Occ50 [7]?
Answer: Its Occ50 is 23 nM.

Question: Which results are given for `Cc1ccc2c(c1)N=C(C1=C[C@H](C)N(C)CC1)c1cc(Cl)ccc1N2`?
Answer: pIC50 [1]: 5.96; Drug metabolism [2]: 0.38 µmol/L; pKi (D(2) dopamine receptor): 7.01; pKi (D(1A) dopamine receptor [4]): 9.32

Question: With `CCc1ccc2c(c1)C(C1=C[C@H](C)N(C)CC1)=Nc1ccccc1N2` as the molecule, how does the pIC50 [1] read?
Answer: The pIC50 was 6.22.

Question: And the Drug metabolism [2]?
Answer: Its Drug metabolism is 0.86 µmol/L.

Question: And the pKi (D(2) dopamine receptor)?
Answer: Its pKi is 6.78.

Question: And the pKi (D(1A) dopamine receptor [4])?
Answer: The pKi was 8.40.

Question: Which results are given for `C[C@H]1C=C(C2=Nc3cc(Cl)ccc3Nc3ccc(C#N)cc32)CCN1C`?
Answer: pIC50 [1]: 6.22; Drug metabolism [2]: 0.49 µmol/L; pKi (D(2) dopamine receptor): 6.87; pKi (D(1A) dopamine receptor [4]): 8.96
